Assay results: US10730923B2 (Indiana University Research and Technology Corporation, priority 2011, dated 2020)
*1 amine or outer side, *2 acyl side, *3 side chain or, on linkers, in order; H or OH if unused. Where a SMILES comes first, the peptide text is derived from it. Where no end group is shown, it is not given here. Side-chain parts run from the residue outwards. [ ]: non-standard residue; d: D form. The star is where a group is joined. γGlu = O=C(O)[C@H](CCC(=O)[*:2])N[*:1]; Palmitoyl = CCCCCCCCCCCCCCCC(=O)*; Aib = CC(C)(N)C(=O)O

Key:
Type in all cases: in vivo
[1] = diet-induced obese (DIO) mice, daily dosing for nine days: body weight and ambient glucose
Method: Mice were administered a vehicle control or a dose of a peptide daily for nine days. The peptides tested in this study included a peptide of SEQ ID NO: 12, a peptide of SEQ ID NO: 17, a peptide of SEQ ID NO: 18, and a peptide of SEQ ID NO: 19. Doses of each peptide were varied—each of the peptides of SEQ ID NO: 12, 17, and 19 was administered at a dose of either 3 nmol/kg or 9 nmol/kg, while the peptide of SEQ ID NO: 18 was administered at a dose of 1 nmol/kg, 3 nmol/kg, or 9 nmol/kg. Data are expressed as mean±SEM.
In addition to cumulative body weight change, ambient glucose levels of the DIO mice were measured.

[2] = obese rhesus monkeys, daily dosing for 21 days: body weight and food intake
Method: The in vivo effects of a peptide of the invention were confirmed in obese rhesus monkeys by administering daily for 21 days a vehicle control, a commercially available product (Liraglutide), a peptide of SEQ ID NO: 20, or a peptide of SEQ ID NO: 17. […] Body weight and food intake were measured.

[3] = diabetic rhesus monkeys, 10 days treatment: body weight, fasting blood glucose, Meal Tolerance Test; details: 1 μg/kg s.c. for 10 days
Method: The in vivo effects of a peptide of the invention were tested in diabetic rhesus monkeys (n=7) that were aged 16-26 years and having an average body weight of […]. Diabetic rhesus monkeys (n=7) that were aged 16-26 years with an average body weight of […] were administered a vehicle control, Liraglutide at a dose of 10 μg/kg s.c. or a peptide of SEQ ID NO: 17 at a dose of 1 μg/kg s.c. for 10 days. At the end of each treatment, fasting blood glucose (FBG) was measured first followed by a Meal Tolerance Test (MTT) to assess glucose tolerance. […] Data are expressed in FIG. 4 as mean±SEM. *P<0.05 versus vehicle.

| Molecule | reduction in glucose levels compared to vehicle control mice ([1]; 3 nmol/kg, Day 7) | decrease in glucose levels compared to vehicle control mice ([1]; 3 nmol/kg, Day 9) | decrease in glucose levels compared to vehicle control mice ([1]; 9 nmol/kg, Day 4) | decrease in glucose levels compared to vehicle control mice ([1]; 9 nmol/kg, Day 7) | decrease in glucose levels compared to vehicle control mice ([1]; 9 nmol/kg, Day 9) | body weight following a one week wash-out ([2]; Day 28) | food intake, % change vs. baseline ([2]; daily s.c. for 21 days, Liraglutide 20 μg/kg, SEQ ID NO: 17 3 μg/kg) | glucose tolerance during Meal Tolerance Test (MTT) compared to vehicle [3] | decrease in ambient glucose vs. vehicle ([1]; 3 nmol/kg or 9 nmol/kg dose, by Day 4) |
| --- | --- | --- | --- | --- | --- | --- | --- | --- | --- |
| CCCCCCCCCCCCCCCC(=O)N[C@@H](CCC(=O)N[C@@H](CCC(=O)NCCCC[C@H](NC(=O)[C@H](CC(=O)O)NC(=O)[C@H](CO)NC(=O)[C@@H](NC(=O)[C@H](Cc1ccccc1)NC(=O)[C@@H](NC(=O)CNC(=O)[C@H](CCC(N)=O)NC(=O)C(C)(C)NC(=O)[C@@H](N)Cc1c[nH]cn1)[C@@H](C)O)[C@@H](C)O)C(=O)N[C@@H](CO)C(=O)N[C@@H](CCCCN)C(=O)N[C@@H](Cc1ccc(O)cc1)C(=O)N[C@@H](CC(C)C)C(=O)N[C@@H](CC(=O)O)C(=O)NC(C)(C)C(=O)N[C@@H](CCCNC(=N)N)C(=O)N[C@@H](C)C(=O)N[C@@H](C)C(=O)N[C@@H](CCC(N)=O)C(=O)N[C@@H](CC(=O)O)C(=O)N[C@@H](Cc1ccccc1)C(=O)N[C@H](C(=O)N[C@@H](CCC(N)=O)C(=O)N[C@@H](Cc1c[nH]c2ccccc12)C(=O)N[C@@H](CC(C)C)C(=O)N[C@@H](CCSC)C(=O)N[C@@H](CC(N)=O)C(=O)N[C@H](C(=O)N[C@@H](CCCCN)C(=O)N[C@@H](CCC(N)=O)C(=O)O)[C@@H](C)O)C(C)C)C(=O)O)C(=O)O [SEQ ID NO: 17] (H-H[Aib]QGTFTSDK([γGlu-γGlu-Palmitoyl])SKYLD[Aib]RAAQDFVQWLMNTKQ-OH; N-terminus assumed) | ~28% | ~19% | ~48% | ~48% | ~45% | regained much of the weight that was lost | −25.7%±3.2 | improved glucose tolerance |  |
| SEQ ID NO: 18: peptide of SEQ ID NO: 18 of the sequence listing, tested in DIO mice; sequence not printed in the text (HXQGTFTSDKSKYLDERAAQDFVQWLMDT; (2)..(2) Xaa is AIB; (10)..(10) Acylated with a C16 fatty acyl group via gamma-Glu-gamma-Glu spacer; (29)..(29) C-terminal amidation) |  |  |  |  |  |  |  |  | −29% |
| SEQ ID NO: 19: peptide of SEQ ID NO: 19 of the sequence listing, tested in DIO mice; sequence not printed in the text (H[dS]QGTFTSDK([γGlu-Palmitoyl])SKYLDERAAQDFVQWLLDT-NH2; N-terminus assumed; SMILES CCCCCCCCCCCCCCCC(=O)N[C@@H](CCC(=O)NCCCC[C@H](NC(=O)[C@H](CC(=O)O)NC(=O)[C@H](CO)NC(=O)[C@@H](NC(=O)[C@H](Cc1ccccc1)NC(=O)[C@@H](NC(=O)CNC(=O)[C@H](CCC(N)=O)NC(=O)[C@@H](CO)NC(=O)[C@@H](N)Cc1c[nH]cn1)[C@@H](C)O)[C@@H](C)O)C(=O)N[C@@H](CO)C(=O)N[C@@H](CCCCN)C(=O)N[C@@H](Cc1ccc(O)cc1)C(=O)N[C@@H](CC(C)C)C(=O)N[C@@H](CC(=O)O)C(=O)N[C@@H](CCC(=O)O)C(=O)N[C@@H](CCCNC(=N)N)C(=O)N[C@@H](C)C(=O)N[C@@H](C)C(=O)N[C@@H](CCC(N)=O)C(=O)N[C@@H](CC(=O)O)C(=O)N[C@@H](Cc1ccccc1)C(=O)N[C@H](C(=O)N[C@@H](CCC(N)=O)C(=O)N[C@@H](Cc1c[nH]c2ccccc12)C(=O)N[C@@H](CC(C)C)C(=O)N[C@@H](CC(C)C)C(=O)N[C@@H](CC(=O)O)C(=O)N[C@H](C(N)=O)[C@@H](C)O)C(C)C)C(=O)O) |  |  | ~40% | ~39% | ~26% |  |  |  |  |
